# Test results taken from patent publication US20230277553A1, “THERAPEUTIC COMPOSITION OF CURE-PRO COMPOUNDS FOR TARGETED DEGRADATION OF BET DOMAIN PROTEINS, AND METHODS OF MAKING AND USAGE” (CORNELL UNIVERSITY, priority 2020, published 2023).
# “Also recorded” adds a separate entry of the source. Residues, ends and D or L forms follow the SMILES beside them. *: point of attachment. Cbz = O=C(OCc1ccccc1)*
# Key:
# Type in all cases: cell-based
# BRD4 [1] = molecular target: T1, BRD4 (Homo sapiens, UniProt O60885); assay: Summary of BRD4 degradation by CURE-PRO pairs, estimated from Western Blot or WES (Proteinsimple); set-up: endogenous in cells; conditions: for Degradation of BRD4 in combination with CRBN ligand [drawing 372] / Degradation of BRD4 in combination with CRBN ligand [drawing 370] / Degradation of BRD4 in combination with CRBN ligand [drawing 371]: Table 1; for Degradation of BRD4 in combination with CRBN ligand [drawing 372]: third drawing (8066); for Degradation of BRD4 in combination with CRBN ligand [drawing 370]: aromatic 1,2-diol- or hindered cis-1,2-diol-containing CRBN ligand, first drawing (8046); for Degradation of BRD4 in combination with CRBN ligand [drawing 371]: second drawing (8047)
# Description: A black check mark indicates efficacy of 30% to 70% or higher protein degradation.
# BRD4 [2] = molecular target: T1, BRD4; assay: CURE-PRO-mediated BRD4 degradation, Western blot, HeLa cells; set-up: endogenous in cells; host or cells: HeLa; conditions: 24 h; for BRD4 degradation, co-treatment with CRBN ligand 8046: 1:1 with 8046, 10 μM each; for BRD4 degradation, co-treatment with CRBN ligand 8066: 1:1 with 8066, 10 μM each (BRD-E10: 10 and 100 μM); for BRD4 degradation, BRD ligand alone: BRD monomer alone
# How it was run: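 HeLa cells treated 24 h with compounds in DMSO (1-10 μM, 10 μM or 100 μM each; paired monomers combined 1:1), optional 15-min pretreatment with pomalidomide, VHL298, Nutlin3a (10 μM) or MG-132/carfilzomib (1 μM). RIPA lysates, 10-20 μg protein immunoblotted for BRD4 with β-actin, ECL detection.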
# BRD4 [3] = molecular target: T1, BRD4; assay: CURE-PRO-mediated BRD4 degradation with MDM2 ligands, WES (ProteinSimple), HCT116 cells; set-up: endogenous in cells; conditions: for BRD4 degradation, in combination with MDM2 ligand 8313 / BRD4 degradation, in combination with MDM2 ligand 8314: HCT116, 24 h, WES; for BRD4 degradation, in combination with MDM2 ligand 8313: 1:1 with 8313, 1-10 μM each; for BRD4 degradation, in combination with MDM2 ligand 8314: 1:1 with 8314, 1-10 μM each; for Inhibition of BRD-N25 + 8310 mediated BRD4 degradation by proteasome inhibitor: HCT116, monomers 10 μM each, inhibitor 1 μM pre-incubation
# Description: (§1) All cell lines were purchased from ATCC or DSMZ and grown at 37° C. with 5% CO2. Human HeLa cells were cultured in complete growth medium (Dulbecco's modified Eagle's medium (DMEM) supplemented with 10% FBS); MCF7 cells were cultured in complete growth medium (Dulbecco's modified Eagle's medium (DMEM) supplemented with 10% FBS and 0.01 mg/ml human recombinant insulin (Sigma Aldrich); Namalwa and MOLM-13 cells were cultured in complete growth medium (RPMI 1640 medium supplemented with 10% FBS); MV-4-11 were cultured in complete growth medium (Iscove's Modified Dulbecco's medium, supplemented with 10% FBS); HCT116 cells were cultured in complete growth medium (McCoy's 5a Medium supplemented with 10% FBS). For cellular degradation of BRD4 studies, cells were seeded in a 12-well plate at 70-80% confluency, allowed to attach overnight, and incubated with the indicated compounds for the indicated time. When indicated, a 15-minute pretreatment with 10 μM pomalidomide, 10 μM VHL298, 10 μM Nutlin3a, 1 μM MG-132 or 1 μM Carfilzomib was performed before the addition of CURE-PROs. For washout studies, after CURE-PRO treatment, media was aspirated and incubated with complete medium for the indicated time before lysis.
# (§2) WES Simple analysis was performed on WES system (ProteinSimple-Biotechne) according to the manufacturer's instructions. Total protein concentrations of cell lysates were determined by the Pierce BCA kit (Thermo Fisher). 3 μL of 0.3 μg/μL of the protein lysate was loaded onto a 12- to 230-kDa WES assay plate (ProteinSimple) where 300 nL sample was withdrawn through a capillary, subjected to electrophoretic separation of proteins by size, and followed by the simultaneous, HRP-based detection of proteins using the Anti-Rabbit Detection Module (Proteinsimple: #DM-001). The electropherograms were checked then the automatic peak detection was manually corrected if it was required.
# HCT116 cells (3×10^6) were treated for 24 hours with the compounds solubilized in DMSO. Compounds were added at 1 μM-10 μM each. Standardized protein samples were electrophoresed and imaged as described in the WES ProteinSimple section above. FIGS. 59, 60, and 61 depict the concentration-dependence of CURE-PRO-mediated BRD4 degradation using MDM2 ligands.
# HCT116 cells (3×10^6) were treated for 24 hours with the compounds solubilized in DMSO. Compounds were added at 1 μM-10 μM each. Standardized protein samples were electrophoresed and imaged as described in the WES ProteinSimple section above. FIGS. 62 and 63 depict the concentration-dependence of CURE-PRO-mediated BRD4 degradation using MDM2 ligands.
# HCT116 cells (3×10^6) were treated for 24 hours with the compounds solubilized in DMSO. CURE-PRO monomers were added at 10 μM each and the proteasomal inhibitors at 1 μM. Standardized protein samples were electrophoresed and imaged as described in the WES ProteinSimple section above. FIG. 68 depicts the dependence of the proteasome for CURE-PRO-mediated BRD4 degradation.
# BRD4 [4] = molecular target: T1, BRD4; assay: CURE-PRO-mediated BRD4 degradation with VHL ligands, WES (ProteinSimple), MCF7 cells; set-up: endogenous in cells; conditions: for Inhibition of BRD-E2 + 8305 mediated BRD4 degradation by proteasome inhibitor / Inhibition of BRD-E20 + 8305 mediated BRD4 degradation by proteasome inhibitor: MCF7, monomers 10 μM each, inhibitor 1 μM pre-incubation
# Description: as §1, §2
# MCF7 cells (3×10^6) were treated for 4-24 hours continually (FIG. 72), or treated for 4h, washed and incubated for a further 4-24 h with the compounds solubilized in DMSO. Compounds were added at 10 μM each. Cells were washed, lysed, and clarified by centrifugation. The total protein concentration was quantified by the BCA method (ThermoFisher Sciences). Standardized protein samples were electrophoresed and imaged as described in the WES Proteinsimple section above. FIG. 69 depicts the CURE-PRO-mediated BRD4 degradation for the BRD-E50 monomer, and VHL ligand, 8305.
# MCF7 cells (3×10^6) were treated for 24 hours with the compounds solubilized in DMSO. CURE-PRO monomers were added at 10 μM each and the proteasomal inhibitors at 1 μM. Standardized protein samples were electrophoresed and imaged as described in the WES Proteinsimple section above. FIGS. 73 and 75 depicts the dependence of the proteasome for CURE-PRO-mediated BRD4 degradation.
# MCF7 cells (3×10^6) were treated for 24 hours with the compounds solubilized in DMSO. CURE-PRO monomers were added at 10 μM. FIG. 74 depicts the CURE-PRO-mediated BRD4 degradation for the BRD-E50 monomer, and VHL ligand, 8305 combined in a 1:1 ratio after 24 h.
structure (smiles),measurement,setting,value
COc1ccc2c(c1)C(c1ccc(Cl)cc1)=N[C@@H](CC(=O)NCCCCCNC(=O)c1cccc(B(O)O)c1)c1nnc(C)n1-2 [BRD-E8],Degradation of BRD4 in combination with CRBN ligand [drawing 372],BRD4 [1],✓ (A black check mark indicates efficacy of 30% to 70% or higher protein degradation)
same,Degradation of BRD4 in combination with CRBN ligand [drawing 370],BRD4 [1],✓ (A black check mark indicates efficacy of 30% to 70% or higher protein degradation)
same,"Concentration at which BRD4 degradation is observed, co-dosed with 8046",BRD4 [2]; 1:1 with 8046,1 µM
same,"BRD4 degradation, co-treatment with CRBN ligand 8046",BRD4 [2]; Western blot,causes degradation of BRD4; also recorded: Degradation is noted
same,"Concentration at which BRD4 degradation is observed, co-dosed with 8046","BRD4 [2]; 1:1 with 8046, tested 1 nM-1 μM each",0.1 µM
same,"BRD4 degradation, co-treatment with CRBN ligand 8066",BRD4 [2]; Western blot,causes degradation of BRD4; also recorded: Degradation is noted
same,"BRD4 degradation, BRD ligand alone",BRD4 [2]; Western blot,no change in expression
same,"BRD4 degradation, in combination with MDM2 ligand 8313",BRD4 [3],had no effect on BRD4 protein levels
same,"BRD4 degradation, in combination with MDM2 ligand 8314",BRD4 [3],caused partial loss of the BRD4 protein; also recorded: Degradation is observed
"COc1ccc2c(c1)C(c1ccc(Cl)cc1)=N[C@@H](CC(=O)NCCc1ccc(B(O)O)cc1)c1nnc(C)n1-2 [BRD-E14, (4-(2-(2-((4S)-6-(4-chlorophenyl)-8-methoxy-1-methyl-4H-benzo[f][1,2,4]triazolo[4,3-a][1,4]diazepin-4-yl)acetamido)ethyl)phenyl)boronic acid]",Degradation of BRD4 in combination with CRBN ligand [drawing 371],BRD4 [1],✓ (A black check mark indicates efficacy of 30% to 70% or higher protein degradation)
same,Degradation of BRD4 in combination with VHL ligand [drawing 397],"BRD4 [1]; Table 3, aromatic 1,2-diol-containing VHL ligand, second drawing (8305)",✓ (A black check mark indicates efficacy of 30% to 70% or higher protein degradation)
same,"BRD4 degradation, co-treatment with CRBN ligand 8047","BRD4 [2]; 1:1 with 8047, 10 μM each, Western blot",causes degradation of BRD4; also recorded: Degradation is noted
same,"BRD4 degradation, in combination with MDM2 ligand 8314",BRD4 [3],caused partial loss of the BRD4 protein; also recorded: Degradation is observed
"CCNC(=O)C[C@@H]1N=C(c2ccc(Cl)cc2)c2cc(OCCNC(=O)c3cccc(B(O)O)c3)ccc2-n2c(C)nnc21 [BRD-E21, (3-((2-(((4S)-6-(4-chlorophenyl)-4-(2-(ethylamino)-2-oxoethyl)-1-methyl-4H-benzo[f][1,2,4]triazolo[4,3-a][1,4]diazepin-8-yl)oxy)ethyl)carbamoyl)phenyl)boronic acid]",Degradation of BRD4 in combination with CRBN ligand [drawing 371],BRD4 [1],✓ (A black check mark indicates efficacy of 30% to 70% or higher protein degradation)
same,"Concentration from which BRD4 degradation is observed, co-dosed with 8047","BRD4 [2]; 1:1 with 8047, tested 1 nM-1 μM each",≥ 10 nM
same,"BRD4 degradation, BRD ligand alone",BRD4 [2]; Western blot,no change in expression
same,"BRD4 degradation, in combination with MDM2 ligand 8313",BRD4 [3],had no effect on BRD4 protein levels
same,"BRD4 degradation, in combination with MDM2 ligand 8314",BRD4 [3],caused partial loss of the BRD4 protein; also recorded: Degradation is observed
"CCNC(=O)C[C@@H]1N=C(c2ccc(Cl)cc2)c2cc(OCCCCCCNC(=O)c3ccc(B(O)O)cc3)ccc2-n2c(C)nnc21 [BRD-E79, (4-((6-(((4S)-6-(4-chlorophenyl)-4-(2-(ethylamino)-2-oxoethyl)-1-methyl-4H-benzo[f][1,2,4]triazolo[4,3-a][1,4]diazepin-8-yl)oxy)hexyl)carbamoyl)phenyl)boronic acid]",Degradation of BRD4 in combination with CRBN ligand [drawing 371],BRD4 [1],✓ (A black check mark indicates efficacy of 30% to 70% or higher protein degradation)
same,Degradation of BRD4 in combination with CRBN ligand [drawing 372],BRD4 [1],✓ (A black check mark indicates efficacy of 30% to 70% or higher protein degradation)
same,Degradation of BRD4 in combination with CRBN ligand [drawing 370],BRD4 [1],✓ (A black check mark indicates efficacy of 30% to 70% or higher protein degradation)
same,"BRD4 degradation, co-treatment with CRBN ligand 8046",BRD4 [2]; Western blot,causes degradation of BRD4; also recorded: Degradation is noted
same,"BRD4 degradation, co-treatment with CRBN ligand 8066",BRD4 [2]; Western blot,causes degradation of BRD4; also recorded: Degradation is noted
same,"BRD4 degradation, BRD ligand alone",BRD4 [2]; Western blot,no change in expression
same,"BRD4 degradation, in combination with MDM2 ligand 8313",BRD4 [3],caused BRD4 protein degradation at 1 and 10 μM; also recorded: Degradation of BRD4 is observed
same,"BRD4 degradation, in combination with MDM2 ligand 8314",BRD4 [3],no protein loss was observed
CC(C)C[C@H](NC(=O)[C@H](CCc1ccccc1)NC(=O)CN1CCOCC1)C(=O)N[C@@H](Cc1ccccc1)C(=O)N[C@@H](CC(C)C)C(=O)[C@@]1(C)CO1 [Carfilzomib],Inhibition of BRD-N25 + 8310 mediated BRD4 degradation by proteasome inhibitor,BRD4 [3],inhibited by the pre-incubation
same,Inhibition of BRD-E2 + 8305 mediated BRD4 degradation by proteasome inhibitor,BRD4 [4],inhibited by the pre-incubation
same,Inhibition of BRD-E20 + 8305 mediated BRD4 degradation by proteasome inhibitor,BRD4 [4],inhibited by the pre-incubation
CC(C)C[C@@H](C=O)NC(=O)[C@H](CC(C)C)NC(=O)[C@H](CC(C)C)NC(=O)OCc1ccccc1 [MG-132] (Cbz-Leu-Leu-Leu-aldehyde),Inhibition of BRD-N25 + 8310 mediated BRD4 degradation by proteasome inhibitor,BRD4 [3],inhibited by the pre-incubation
same,Inhibition of BRD-E2 + 8305 mediated BRD4 degradation by proteasome inhibitor,BRD4 [4],inhibited by the pre-incubation
same,Inhibition of BRD-E20 + 8305 mediated BRD4 degradation by proteasome inhibitor,BRD4 [4],inhibited by the pre-incubation
Cc1ncsc1-c1ccc(CNC(=O)[C@@H]2C[C@@H](O)CN2C(=O)[C@@H](NC(=O)C2(C#N)CC2)C(C)(C)C)cc1 [VHL298],Inhibition of BRD-E50 + 8305 mediated BRD4 degradation by preincubation,"BRD4 [4]; MCF7, equimolar final concentrations (10 μM)",attenuates CURE-PRO mediated BRD4 degradation; also recorded: inhibited CURE-PRO mediated degradation; also recorded: inhibits the degradation of BRD4
"Cc1ncsc1-c1ccc(CNC(=O)[C@@H]2C[C@@H](O)CN2C(=O)[C@@H](NC(=O)c2cccc(O)c2O)C(C)(C)C)cc1 [compound 8305, (2S,4R)-1-((S)-2-(2,3-dihydroxybenzamido)-3,3-dimethylbutanoyl)-4-hydroxy-N-(4-(4-methylthiazol-5-yl)benzyl)pyrrolidine-2-carboxamide]","BRD4 degradation, monomer alone (WES)","BRD4 [4]; MCF7, 10 μM",no degradation of BRD4
